From the Deep4Chem optical property database

Test: photoluminescence quantum yield (fraction); solvent given as SMILES
[1] = in c1ccc2c(c1)c1ccccc1n2-c1ccc(-c2ccc(-n3c4ccccc4c4ccccc43)cc2)cc1

For `CN(C)c1ccc(-c2cc(-c3ccc(C#N)cc3)nc(-c3ccccc3)n2)cc1`, the photoluminescence quantum yield (in ClC(Cl)Cl) was 0.44.

`CC/[NH+]=c1\cc2oc3cc(NCCC(=O)NCC(=O)OC)c4ccccc4c3nc-2cc1C` gave a photoluminescence quantum yield (in CCO) of 0.37 and a photoluminescence quantum yield (in O) of 0.45.

In the case of `CN(C)c1ccc(N2c3sc4ccccc4c3Sc3c2sc2ccccc32)cc1`, the photoluminescence quantum yield (in ClCCl) is reported as 0.19.

Work on `CCCCCOc1cc2oc(=O)c3c4ccc(O)cc4c4ccc5cccc6c(c1)c2c3c4c56` yielded a photoluminescence quantum yield (in C1CCOC1) of 0.27.

`C(=C\c1ccc(-c2cccc3ccccc23)s1)/c1cccs1` gave a photoluminescence quantum yield (in ClCCl) of 0.25.

For `CC[N+]1(CC)CN2C(=N1)C(C(=O)O)=Cc1ccccc12`, the photoluminescence quantum yield (in CN(C)C=O) was 0.006 and the photoluminescence quantum yield (in O) was 0.531.

With `Cc1ccc(-c2cnc3nn4ccccc4c3n2)cc1` the photoluminescence quantum yield (in C1CCOC1) was 0.26.

`CCOC(=O)c1cc(C(=O)OCC)c2cc(N(C)C)ccc2n1` gave a photoluminescence quantum yield (in CCO) of 0.595.

`CN(C)c1ccc2c(-c3cc(N)ccc3C(=O)[O-])c3ccc(=[N+](C)C)cc-3oc2c1` showed a photoluminescence quantum yield (in CCO) of 0.016 and a photoluminescence quantum yield (in O) of 0.022.

`F[B-]1(F)n2c(c3ccccc3c2-c2ccccc2)C(c2ccccc2)=C2c3ccccc3C(c3ccccc3)=[N+]21` gave a photoluminescence quantum yield (in ClCCl) of 0.93.

Work on `CCCCCCCCOC(=O)c1ccc(-c2cc3ccc4cc(-c5ccc(C(=O)OCCCCCCCC)cc5)cc5ccc(c2)c3c45)cc1` yielded a photoluminescence quantum yield (in Cc1ccccc1) of 0.33.

In the case of `CC(C)[Si](C#Cc1c2cc3ccccc3cc2c(C#C[Si](C(C)C)(C(C)C)C(C)C)c2cc3ccccc3cc12)(C(C)C)C(C)C`, the photoluminescence quantum yield (in ClCCl) is reported as 0.15.

In the case of `COc1cc(/C=C/c2ccccn2)c(OC)cc1C=O`, the photoluminescence quantum yield (in C1CCOC1) is reported as 0.19, the photoluminescence quantum yield (in CC#N) is reported as 0.24 and the photoluminescence quantum yield (in CN(C)C=O) is reported as 0.21. For the same compound, the photoluminescence quantum yield (in Cc1ccccc1) was 0.16 and the photoluminescence quantum yield (in ClCCl) was 0.36.

Compound `COc1cc(/C=C/c2ccncc2)c(OC)cc1C=O` has a photoluminescence quantum yield (in C1CCOC1) of 0.11, a photoluminescence quantum yield (in CC#N) of 0.17 and a photoluminescence quantum yield (in CN(C)C=O) of 0.15. The photoluminescence quantum yield (in Cc1ccccc1) was 0.09 and the photoluminescence quantum yield (in ClCCl) was 0.26.

`CC(C)(C)c1cc(-c2cc3nc4c5ccc(N6c7ccccc7Oc7ccccc76)cc5c5cc(N6c7ccccc7Oc7ccccc76)ccc5c4nc3cc2-c2cc(C(C)(C)C)cc(C(C)(C)C)c2)cc(C(C)(C)C)c1` gave a photoluminescence quantum yield [1] of 0.83.

`Nc1cccc2c1C(=O)NC2=O` showed a photoluminescence quantum yield (in C1CCOC1) of 0.97, a photoluminescence quantum yield (in CCO) of 0.74 and a photoluminescence quantum yield (in CN(C)C=O) of 0.66.

`N#Cc1cc(N2c3ccccc3Oc3ccccc32)c(N2c3ccccc3Oc3ccccc32)cc1C#N` gave a photoluminescence quantum yield [1] of 0.064.

`CCC1=C(C)C2=Cc3c4ccccc4c4n3[B-](c3ccc(OC)cc3)(Oc3ccccc3-4)[N+]2=C1C` (centres undefined) showed a photoluminescence quantum yield (in CC#N) of 0.67, a photoluminescence quantum yield (in CCCCCC) of 0.71 and a photoluminescence quantum yield (in Cc1ccccc1) of 0.68. For the same compound, the photoluminescence quantum yield (in ClCCl) was 0.7.

With `COc1cccc(C2=C(c3ccc(C(C)(C)C)cc3)C(c3ccc(C(C)(C)C)cc3)=[N+]3C2=C(c2ccccc2)c2c(-c4cccc(OC)c4)c(-c4ccc(C(C)(C)C)cc4)c(-c4ccc(C(C)(C)C)cc4)n2[B-]3(F)F)c1` the photoluminescence quantum yield (in C1CCCCC1) was 0.44, the photoluminescence quantum yield (in C1CCOC1) was 0.45 and the photoluminescence quantum yield (in CC#N) was 0.38. The photoluminescence quantum yield (in Cc1ccccc1) was 0.54 and the photoluminescence quantum yield (in ClCCl) was 0.58.

`N#Cc1c(N2CCCCC2)cc(-c2cccs2)c2c1-c1cccc3cccc-2c13` showed a photoluminescence quantum yield (in O) of 0.3.

`Cc1cc2cc(N3c4ccccc4Oc4ccccc43)ccc2c(=O)o1` gave a photoluminescence quantum yield (in c1cc(-c2cccc(-n3c4ccccc4c4ccccc43)c2)cc(-n2c3ccccc3c3ccccc32)c1) of 0.47.

`CC(C)(C)c1ccc(-c2ccc(C(C)(C)C)cc2)cc1` showed a photoluminescence quantum yield (in C1CCCCC1) of 0.26.

With `O=C([O-])c1ccc(C(=O)[O-])c2cc3ccccc3cc12` the photoluminescence quantum yield (in CN(C)C=O) was 0.066.

Work on `CC1=CC(C)=[N+]2C1=Cc1c3ccccc3c(C#Cc3cccs3)n1[B-]2(F)F` yielded a photoluminescence quantum yield (in CCCCCC) of 0.69, a photoluminescence quantum yield (in CCCCCCCCO) of 0.45 and a photoluminescence quantum yield (in CCOC(C)=O) of 0.55. For the same compound, the photoluminescence quantum yield (in CN(C)C=O) was 0.4 and the photoluminescence quantum yield (in ClCCl) was 0.44.

Work on `c1ccc(-c2cc3cccc4cc(-c5ccccc5)c5cc(-c6cc7[b-]8c(c6)c(-c6ccccc6)cc6cccc(cc7-c7ccccc7)[n+]86)cc2[b-]5[n+]34)cc1` yielded a photoluminescence quantum yield (in C1CCCCC1) of 0.12.

`C[n+]1ccn(CCCCc2ccc3c(c2)c2ccccc2n3-c2cc(C#N)c(C#N)cc2-n2c3ccccc3c3cc(CCCCn4cc[n+](C)c4)ccc32)c1` gave a photoluminescence quantum yield (in CC#N) of 0.026.

For `Cn1c(=O)c(/N=N/c2ccc(/N=N/c3ccc(S(=O)(=O)O)cc3)cc2)c(O)c2ccccc21`, the photoluminescence quantum yield (in CS(C)=O) was 0.05.

`Brc1ccc2[nH]c(-c3ccc(-c4ccc(-c5ccc(-c6nc7cc(Br)ccc7[nH]6)cc5)cc4)cc3)nc2c1` gave a photoluminescence quantum yield (in CN(C)C=O) of 0.42.

For `c1ccc(-c2cc3cc4ccccc4cc3p2-c2ccccc2)cc1` (centres undefined), the photoluminescence quantum yield (in ClCCl) was 0.035.

In the case of `COc1ccc(C2=C(c3ccc(OC)cc3)C(C)(C)c3sccc32)cc1`, the photoluminescence quantum yield (in C1CCCCC1) is reported as 0.02.

`CC(=O)[B-]1(C(C)=O)OC(c2ccc3ccccc3c2)=CC(c2ccc3ccccc3c2)=[O+]1` gave a photoluminescence quantum yield (in CC#N) of 0.56 and a photoluminescence quantum yield (in ClC(Cl)(Cl)Cl) of 0.61.

In the case of `C(=C\c1nc2c(c(N3CCOCC3)n1)CCCC2)/c1ccccc1`, the photoluminescence quantum yield (in ClCCl) is reported as 0.023.

For `CN(C)c1ccc(C(=Cc2ccc(C#N)cc2)c2ccc(N(C)C)cc2)cc1`, the photoluminescence quantum yield (in C1CCOC1) was 0.056.

For `CCCCNc1nn(-c2ccc(OC)cc2)nc1C#N`, the photoluminescence quantum yield (in CC#N) was 0.918.
